# In patent publication US10195185B2, “3-(1H-imidazo[4,5-C]pyridin-2-yl)-1H-pyrazolo[4,3-B]pyridines and therapeutic uses thereof” (Samumed, LLC, priority 2015, dated 2019):
# Assays:
# [1] = system: IL-6 in human monocyte cell line (THP-1 cells); test: IL-6 inhibition in LPS-stimulated THP-1 cells (HTRF); type: cell-based; details: IL-6 in LPS-stimulated THP-1 cells; for EC50: HTRF; for inhibition at 10 µM: read-out: percent inhibition in brackets beside EC50 >10 μM
# Summary of the method: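 THP-1 cells, serum-reduced (1% FBS) for 24 h, were preincubated with compound (10-point 1:3 series from 10 μM, 0.1% DMSO) for 2 h, then stimulated with 500 ng/mL LPS for 22 h at 37° C. IL-6 was read by HTRF (665/620 nm ratio) and normalized to DMSO. EC50 from four-parameter fit; % inhibition at 10 μM given if EC50 >10 μM.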
# [2] = system: primary human mesenchymal stem cells (hMSCs); test: Induction of chondrogenesis in hMSCs (nodule area, Rhodamine B / Nile Red); type: cell-based; details: TGF-β3 as positive control; for Emax: read-out: Max. Activity as % TGF-β3 activity; for EC50: concentration required to induce 50% levels of chondrogenesis, read-out: Conc (nM) of 50% TGF-β3 activity
# Description: Representative compounds were screened using primary human mesenchymal stem cells (hMSCs) to determine their ability to induce chondrogenesis (process by which cartilage is developed).
# Primary human mesenchymal stem cells (hMSCs) were purchased from Lonza (Walkersville, Md.) and expanded in Mesenchymal Stem Cell Growth Media (Lonza). Cells between passage 3 and 6 were used for the experiments.
# Each compound was dissolved in DMSO as a 10 mM stock and used to prepare compound source plates. For the 96 well assay, serial dilution (1:3, 6-point dose-response curves from 2700 nM to 10 nM) and compound transfer was performed using the ECHO 550 (Labcyte, Sunnyvale, Calif.) into 96-well clear bottom assay plates (Greiner Bio-One) with appropriate DMSO backfill for a final DMSO concentration of 0.03%. hMSCs were plated at 20,000 cells/well in 250 μL/well Incomplete Chondrogenic Induction Medium (Lonza; DMEM, dexamethasone, ascorbate, insulin-transferrin-selenium [ITS supplement], gentamycin-amphotericin [GA-1000], sodium pyruvate, proline and L-glutamine). TGF-β3 (10 ng/mL) was used as a positive control for differentiation while negative control wells were treated with 75 nL DMSO for normalization and calculating EC50 values. For the 384 well assay, serial dilution (1:3, 8-point dose-response curves from 5000 nM to 2.2 nM) and compound transfer was performed using the ECHO 550 (Labcyte, Sunnyvale, Calif.) into 384-well clear bottom assay plates (Greiner Bio-One) with appropriate DMSO backfill for a final DMSO concentration of 0.03%. hMSCs were plated at 8,000 cells/well in 80 μL/well Incomplete Chondrogenic Induction Medium (Lonza; DMEM, dexamethasone, ascorbate, insulin-transferrin-selenium [ITS supplement], gentamycin-amphotericin [GA-1000], sodium pyruvate, proline and L-glutamine). TGF-β3 (10 ng/mL) was used as a positive control for differentiation while negative control wells were treated with 25 nL DMSO for normalization and calculating EC50 values. Cells were incubated at 37° C. and 5% CO2 for 6 days. To image chondrogenic nodules, the cells were fixed using 4% formaldehyde (Electron Microscopy Sciences), and stained with 2 μg/mL Rhodamine B (Sigma-Aldrich) and 20 μM Nile Red (Sigma-Aldrich) [Johnson K., et. al, A Stem Cell-Based Approach to Cartilage Repair, Science, (2012), 336(6082), 717-721]. The nodules imaged (25 images per well for 96 well plates and 9 images per well for 384 well plates at 10× magnification) by excitation at 531 nm and emission at 625 nm and quantified using the CellInsight CX5 (Thermo Scientific). Area of nodules in each well was normalized to the average of 3 DMSO treated wells on the same plate using Excel (Microsoft Inc.). The normalized averages (fold change over DMSO) of 2 or 3 replicate wells for each compound concentration were calculated. Due to solubility limitations of some of the compounds, curve fitting was incomplete leading to inaccurate EC50 determinations.
# Using TGF-β3 as a positive control, the concentration of representative compounds required to induce 50% levels of chondrogenesis is reported. In addition, the maximum activity of each compound and the respective dose that each compound reached maximum chondrogenesis activity is reported.
compound,measurement,setting,value
"CCC(=O)Nc1cncc(-c2ccc3[nH]nc(-c4nc5c(-c6cccc(F)c6)nccc5[nH]4)c3n2)c1 [Compound 1, N-(5-(3-(4-(3-Fluorophenyl)-1H-imidazo[4,5-c]pyridin-2-yl)-1H-pyrazolo [4,3-b]pyridin-5-yl)pyridin-3-yl)propionamide]",EC50,[1],> 10000 nM
same,inhibition at 10 µM,[1],0%
same,Emax,[2],95%
same,EC50,[2],5000 nM
"Cc1ccncc1-c1ccc2[nH]nc(-c3nc4c(-c5ccncc5)nccc4[nH]3)c2n1 [Compound 117, 5-(4-Methylpyridin-3-yl)-3-(4-(pyridin-4-yl)-1H-imidazo[4,5-c]pyridin-2-yl)-1H-pyrazolo[4,3-b]pyridine]",EC50,[1],> 10000 nM
same,inhibition at 10 µM,[1],33.1%
same,Emax,[2],53%
same,EC50,[2],2700 nM
"FC1(F)CCN(Cc2cncc(-c3ccc4[nH]nc(-c5nc6c(-c7ccsc7)nccc6[nH]5)c4n3)c2)C1 [Compound 306, 5-(5-((3,3-difluoropyrrolidin-1-yl)methyl)pyridin-3-yl)-3-(4-(thiophen-3-yl)-1H-imidazo[4,5-c]pyridin-2-yl)-1H-pyrazolo[4,3-b]pyridine]",EC50,[1],3660 nM
same,Emax,[2],53%
same,EC50,[2],100 nM
Cc1cn(-c2nccc3[nH]c(-c4n[nH]c5ccc(-c6cncc(NC(=O)CC(C)C)c6)nc45)nc23)cn1 [Compound 198],EC50,[1],> 10000 nM
same,inhibition at 10 µM,[1],25.2%
same,Emax,[2],69%
same,EC50,[2],30 nM
"c1cncc(-c2ccc3[nH]nc(-c4nc5cnccc5[nH]4)c3n2)c1 [Compound 256, 3-(1H-Imidazo[4,5-c]pyridin-2-yl)-5-(pyridin-3-yl)-1H-pyrazolo[4,3-b]pyridine]",EC50,[1],> 10000 nM
same,inhibition at 10 µM,[1],35.5%
same,Emax,[2],55%
same,EC50,[2],30 nM
"Fc1ccc(-c2nccc3[nH]c(-c4n[nH]c5ccc(-c6cncc(CN7CCCC7)c6)nc45)nc23)cc1 [Compound 42, 3-(4-(4-Fluorophenyl)-1H-imidazo[4,5-c]pyridin-2-yl)-5-(5-(pyrrolidin-1-ylmethyl)pyridin-3-yl)-1H-pyrazolo[4,3-b]pyridine]",EC50,[1],> 10000 nM
same,inhibition at 10 µM,[1],23.3%
same,Emax,[2],39%
"O=C(Nc1cncc(-c2ccc3[nH]nc(-c4nc5c(-c6ccc(F)cc6)nccc5[nH]4)c3n2)c1)C1CCC1 [Compound 49, N-(5-(3-(4-(4-Fluorophenyl)-1H-imidazo[4,5-c]pyridin-2-yl)-1H-pyrazolo [4,3-b]pyridin-5-yl)pyridin-3-yl)cyclobutanecarboxamide]",EC50,[1],> 10000 nM
same,inhibition at 10 µM,[1],0%
same,Emax,[2],45%
"CCCCC(=O)Nc1cncc(-c2ccc3[nH]nc(-c4nc5c(-c6ccccn6)nccc5[nH]4)c3n2)c1 [Compound 159, N-(5-(3-(4-(Pyridin-2-yl)-1H-imidazo[4,5-c]pyridin-2-yl)-1H-pyrazolo[4,3-b]pyridin-5-yl)pyridin-3-yl)pentanamide]",EC50,[1],> 10000 nM
same,inhibition at 10 µM,[1],28.2%
same,Emax,[2],113%
same,EC50,[2],10 nM
"CC(C)C(=O)Nc1cncc(-c2ccc3[nH]nc(-c4nc5c(N6CCN(C)CC6)nccc5[nH]4)c3n2)c1 [Compound 233, N-(5-(3-(4-(4-Methylpiperazin-1-yl)-1H-imidazo[4,5-c]pyridin-2-yl)-1H-pyrazolo[4,3-b]pyridin-5-yl)pyridin-3-yl)isobutyramide]",EC50,[1],> 10000 nM
same,inhibition at 10 µM,[1],24%
same,Emax,[2],64%
same,EC50,[2],900 nM
"Fc1cccc(-c2nccc3[nH]c(-c4n[nH]c5ccc(-c6cncc(CN7CCC(F)(F)C7)c6)nc45)nc23)c1 [Compound 26, 5-(5-((3,3-Difluoropyrrolidin-1-yl)methyl)pyridin-3-yl)-3-(4-(3-fluorophenyl)-1H-imidazo[4,5-c]pyridin-2-yl)-1H-pyrazolo[4,3-b]pyridine]",EC50,[1],> 10000 nM
same,inhibition at 10 µM,[1],0%
same,Emax,[2],58%
same,EC50,[2],30 nM
"Cc1cn(-c2nccc3[nH]c(-c4n[nH]c5ccc(-c6cncc(CN7CCCC7)c6)nc45)nc23)cn1 [Compound 210, 3-(4-(4-Methyl-1H-imidazol-1-yl)-1H-imidazo[4,5-c]pyridin-2-yl)-5-(5-(pyrrolidin-1-ylmethyl)pyridin-3-yl)-1H-pyrazolo [4,3-b]pyridine]",EC50,[1],> 10000 nM
same,inhibition at 10 µM,[1],24.5%
same,Emax,[2],50%
"CC(C)Nc1cncc(-c2ccc3[nH]nc(-c4nc5c(-c6ccoc6)nccc5[nH]4)c3n2)c1 [Compound 320, 5-(3-(4-(Furan-3-yl)-1H-imidazo[4,5-c]pyridin-2-yl)-1H-pyrazolo[4,3-b]pyridin-5-yl)-N-isopropylpyridin-3-amine]",EC50,[1],482 nM
same,Emax,[2],76%
same,EC50,[2],30 nM
"CC(C)Nc1cncc(-c2ccc3[nH]nc(-c4nc5c(-c6cccnc6)nccc5[nH]4)c3n2)c1 [Compound 96, N-Isopropyl-5-(3-(4-(pyridin-3-yl)-1H-imidazo[4,5-c]pyridin-2-yl)-1H-pyrazolo[4,3-b]pyridin-5-yl)pyridin-3-amine]",EC50,[1],2750 nM
same,Emax,[2],54%
same,EC50,[2],10 nM
"Cc1ccncc1-c1ccc2[nH]nc(-c3nc4c(-c5ccsc5)nccc4[nH]3)c2n1 [Compound 285, 5-(4-Methylpyridin-3-yl)-3-(4-(thiophen-3-yl)-1H-imidazo[4,5-c]pyridin-2-yl)-1H-pyrazolo[4,3-b]pyridine]",EC50,[1],1340 nM
same,Emax,[2],47%
"Cc1ncc(-c2ccc3[nH]nc(-c4nc5c(-c6cccc(F)c6)nccc5[nH]4)c3n2)s1 [Compound 1126, 5-(3-(4-(3-Fluorophenyl)-1H-imidazo[4,5-c]pyridin-2-yl)-1H-pyrazolo[4,3-b]pyridin-5-yl)-2-methylthiazole]",EC50,[1],> 10000 nM
same,inhibition at 10 µM,[1],0%
same,Emax,[2],43%
"CN(C)CC(=O)Nc1cncc(-c2ccc3[nH]nc(-c4nc5c(-c6cccc(F)c6)nccc5[nH]4)c3n2)c1 [Compound 969, 2-(Dimethylamino)-N-(5-(3-(4-(3-fluorophenyl)-1H-imidazo[4,5-c]pyridin-2-yl)-1H-pyrazolo[4,3-b]pyridin-5-yl)pyridin-3-yl)acetamide]",EC50,[1],> 10000 nM
same,inhibition at 10 µM,[1],31.8%
same,Emax,[2],63%
same,EC50,[2],7 nM
"Fc1ccc(-c2nccc3[nH]c(-c4n[nH]c5ccc(-c6cncnc6)nc45)nc23)cc1 [Compound 55, 3-(4-(4-Fluorophenyl)-1H-imidazo[4,5-c]pyridin-2-yl)-5-(pyrimidin-5-yl)-1H-pyrazolo[4,3-b]pyridine]",EC50,[1],> 10000 nM
same,inhibition at 10 µM,[1],27.3%
same,Emax,[2],139%
same,EC50,[2],900 nM
"CCCCC(=O)Nc1cncc(-c2ccc3[nH]nc(-c4nc5c(-c6ccoc6)nccc5[nH]4)c3n2)c1 [Compound 327, N-(5-(3-(4-(Furan-3-yl)-1H-imidazo[4,5-c]pyridin-2-yl)-1H-pyrazolo[4,3-b]pyridin-5-yl)pyridin-3-yl)pentanamide]",EC50,[1],> 10000 nM
same,inhibition at 10 µM,[1],22.5%
same,Emax,[2],91%
same,EC50,[2],10 nM
"O=C(Nc1cncc(-c2ccc3[nH]nc(-c4nc5c(-c6ccc(Cl)s6)nccc5[nH]4)c3n2)c1)C1CCC1 [Compound 1056, N-(5-(3-(4-(5-Chlorothiophen-2-yl)-1H-imidazo[4,5-c]pyridin-2-yl)-1H-pyrazolo[4,3-b]pyridin-5-yl)pyridin-3-yl)cyclobutanecarboxamide]",EC50,[1],> 10000 nM
same,inhibition at 10 µM,[1],0%
same,Emax,[2],60%
same,EC50,[2],30 nM
